Reference: patent US20250090540A1, “PI3K-ALPHA INHIBITORS AND METHODS OF USE THEREOF” (Relay Therapeutics, Inc., priority 2021, published 2025)
Like-named read-outs stand apart in the source and are kept apart here.

Molecular target: H1047R PIK3CA enzyme (Homo sapiens, UniProt P42336, H1047R)
Test: ADP-Glo Biochemical PIK3CA Kinase Assay
Experimental: Compounds to be assayed were plated in 16 doses of 1:2 serial dilutions (20 nL volume each well) on a 1536-well plate, and the plate warmed to room temperature. PIK3CA enzyme (e.g. H1047R, E542K, E545K, or wild-type) (1 μL of 2 nM solution in Enzyme Assay Buffer (comprising 50 mM HEPES pH 7.4, 50 mM NaCl, 6 mM MgCl2, 5 mM DTT and 0.03% CHAPS)) was added and shaken for 10 seconds and preincubated for 30 minutes. To the well was added 1 μL of 200 μM ATP and 20 μM of diC8-PIP2 in Substrate Assay Buffer (50 mM HEPES pH7.4, 50 mM NaCl, 5 mM DTT and 0.03% CHAPS) to start the reaction, and the plate was shaken for 10 seconds, then spun briefly at 1500 rpm, and then incubated for 60 minutes at room temperature. The reaction was stopped by adding 2 μL of ADP-Glo reagent (Promega), and spinning briefly at 1500 rpm, and then incubating for 40 minutes. ADP-Glo Detection reagent (Promega) was added and the plate spun briefly at 1500 rpm, then incubated for 30 minutes.

[1] = ADP-Glo biochemical PIK3CA kinase assay

H1047R PIK3CA enzyme, sequence (P42336 whole entry H1047R): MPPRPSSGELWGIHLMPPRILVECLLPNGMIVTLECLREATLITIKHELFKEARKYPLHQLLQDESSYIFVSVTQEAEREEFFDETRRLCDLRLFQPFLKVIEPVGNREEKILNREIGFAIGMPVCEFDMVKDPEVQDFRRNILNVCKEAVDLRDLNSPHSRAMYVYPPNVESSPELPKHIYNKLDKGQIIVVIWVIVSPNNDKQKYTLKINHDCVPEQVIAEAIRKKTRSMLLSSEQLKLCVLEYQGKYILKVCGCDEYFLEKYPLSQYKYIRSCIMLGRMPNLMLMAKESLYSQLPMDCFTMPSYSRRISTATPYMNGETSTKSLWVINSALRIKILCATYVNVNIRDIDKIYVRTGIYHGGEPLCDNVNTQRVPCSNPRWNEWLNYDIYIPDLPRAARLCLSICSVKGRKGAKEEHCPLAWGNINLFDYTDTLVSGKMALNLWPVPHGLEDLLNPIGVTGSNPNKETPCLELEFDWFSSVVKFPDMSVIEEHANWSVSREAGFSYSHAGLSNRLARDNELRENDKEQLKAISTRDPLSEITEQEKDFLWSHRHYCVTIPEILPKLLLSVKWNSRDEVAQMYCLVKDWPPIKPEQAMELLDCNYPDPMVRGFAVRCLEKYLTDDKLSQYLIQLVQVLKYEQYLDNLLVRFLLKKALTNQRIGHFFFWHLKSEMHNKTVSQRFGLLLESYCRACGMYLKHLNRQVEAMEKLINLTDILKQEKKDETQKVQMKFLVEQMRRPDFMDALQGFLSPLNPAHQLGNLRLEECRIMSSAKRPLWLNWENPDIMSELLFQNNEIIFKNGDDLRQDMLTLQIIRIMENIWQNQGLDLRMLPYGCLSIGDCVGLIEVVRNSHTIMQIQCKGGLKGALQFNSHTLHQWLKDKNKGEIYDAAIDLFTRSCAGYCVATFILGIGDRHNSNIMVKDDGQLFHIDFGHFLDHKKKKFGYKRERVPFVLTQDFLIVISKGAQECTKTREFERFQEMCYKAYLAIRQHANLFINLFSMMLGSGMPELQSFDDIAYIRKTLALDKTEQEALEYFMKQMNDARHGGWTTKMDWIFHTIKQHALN
H1047R PIK3CA enzyme, sequence (P27986 whole entry partner): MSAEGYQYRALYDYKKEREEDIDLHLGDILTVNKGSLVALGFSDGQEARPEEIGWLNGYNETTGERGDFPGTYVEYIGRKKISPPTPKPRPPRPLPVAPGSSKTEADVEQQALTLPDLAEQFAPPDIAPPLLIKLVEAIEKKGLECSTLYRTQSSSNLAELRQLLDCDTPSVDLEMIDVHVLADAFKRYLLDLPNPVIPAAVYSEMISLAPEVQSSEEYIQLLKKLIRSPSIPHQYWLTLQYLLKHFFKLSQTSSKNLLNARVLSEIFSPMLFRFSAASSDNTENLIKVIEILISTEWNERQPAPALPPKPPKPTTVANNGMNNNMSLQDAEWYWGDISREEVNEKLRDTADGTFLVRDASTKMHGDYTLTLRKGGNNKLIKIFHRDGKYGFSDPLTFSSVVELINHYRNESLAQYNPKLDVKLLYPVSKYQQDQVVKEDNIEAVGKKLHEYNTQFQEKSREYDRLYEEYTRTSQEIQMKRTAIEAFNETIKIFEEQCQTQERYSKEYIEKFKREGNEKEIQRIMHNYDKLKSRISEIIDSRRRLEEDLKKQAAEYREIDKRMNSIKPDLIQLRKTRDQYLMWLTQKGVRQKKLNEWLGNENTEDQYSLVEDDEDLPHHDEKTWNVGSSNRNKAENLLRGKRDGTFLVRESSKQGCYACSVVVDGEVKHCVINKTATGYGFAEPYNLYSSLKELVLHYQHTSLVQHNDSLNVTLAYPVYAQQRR

Row | IC50 [µM] | IC50 [1] [µM] | SMILES
1 | 10 to 100 | – | CNC(=O)CN1CC(=O)N[C@H](c2cc(F)ccc2Cl)[C@H]1C(=O)NC1CCCC(C(F)(F)F)C1 (mixture of isomers) [I-825, trans-3-(2-chloro-5-fluorophenyl)-1-[(methylcarbamoyl)methyl]-5-oxo-N-[3-(trifluoromethyl)cyclohexyl]piperazine-2-carboxamide]
2 | – | 1 to 10 | CNC(=O)c1cnc(N2CCC[C@@H]3CCC[C@@H]32)c(NC(=O)c2csc3ccccc23)c1 (single isomer, unassigned) [I-633]
3 | – | 1 to 10 | Cc1ccccc1Nc1ncc(C(=O)N[C@@H]2CC[C@@H](C(=O)O)C2)cc1NC(=O)c1csc2ccccc12 (single isomer, unassigned) [I-661]
4 | 10 to 100 | – | CNC(=O)c1cnc(Nc2ccccc2C)c(NC(=O)[C@@H](N)C2CCCCC2)c1 (stereo in doubt) [I-159]
5 | 0.5 to 1 | – | CNC(=O)c1cnc(Nc2ccccc2C)c(NC(=O)c2cc(F)cc(Br)c2)c1 [I-2]
6 | 10 to 100 | – | CNC(=O)c1cnc(Nc2ccccc2C)c(NC(=O)Cc2ccc(OCc3ccccc3)c(OCc3ccccc3)c2)c1 [I-14]
7 | 10 to 100 | – | Cc1ccccc1Nc1ncc(C(=O)N2CCCC2)cc1NC(=O)c1cc(F)cc(C(F)(F)F)c1 [I-15]
8 | 1 to 10 | – | CNC(=O)c1cnc(Nc2ccccc2C)c(NC(=O)c2oc(C)nc2C)c1 [I-18]
9 | 1 to 10 | – | CNC(=O)c1cnc(Nc2ccccc2C)c(NS(=O)(=O)c2ccccc2)c1 [I-20]
10 | 10 to 100 | – | CNC(=O)c1cnc(Nc2cccc(F)c2)c(N)c1 [I-32]
11 | 10 to 100 | – | CNC(=O)c1cnc(Nc2ccccc2C)c(NCC2CC2)c1 [I-34]
12 | 10 to 100 | – | CNC(=O)c1cnc(Nc2ccccc2C#N)c(NC(=O)c2cc(F)cc(C(F)(F)F)c2)c1 [I-38]
13 | 1 to 10 | – | CNC(=O)c1cnc(Nc2cccc(C)c2)c(NC(=O)c2cc(F)cc(C(F)(F)F)c2)c1 [I-39]
14 | 10 to 100 | – | CNC(=O)c1cnc(Nc2ccccc2C)c(NC(=O)c2cc3ccccc3o2)c1 [I-40]
15 | 10 to 100 | – | CNC(=O)c1cnc(Nc2ccccc2C)c(NC(=O)c2ccccc2)c1 [I-43]
16 | 1 to 10 | – | CNC(=O)c1cnc(Nc2ccccc2C)c(NC(=O)c2coc3ccccc23)c1 [I-44]
17 | 10 to 100 | – | CNC(=O)c1cnc(Nc2ccccc2C)c(NC(=O)c2ncn3ccccc23)c1 [I-48]
18 | 10 to 100 | – | CNC(=O)c1cnc(Nc2ccccc2C)c(NS(=O)(=O)c2cn(C)nc2C)c1 [I-55]
19 | 10 to 100 | – | CNc1ncc(Br)cc1NC(=O)c1cc(F)cc(C(F)(F)F)c1 [I-58]

Row | IC50 [µM] | IC50 [1] [µM] | SMILES
20 | 10 to 100 | – | Cc1ccccc1Nc1ncc(-c2cnn(C)c2)cc1Nc1ncnn2cccc12 [I-61]
21 | 1 to 10 | – | CNC(=O)c1cnc(Nc2ccccc2C)c(NC(=O)c2cccc(C(F)(F)F)c2)c1 [I-66]
22 | 10 to 100 | – | Cc1ccccc1Nc1ncc(C(=O)NS(C)(=O)=O)cc1NC(=O)c1cc(F)cc(C(F)(F)F)c1 [I-69]
23 | 1 to 10 | – | Cc1ccccc1Nc1ncc(N)cc1NC(=O)c1cc(F)cc(C(F)(F)F)c1 [I-70]
24 | 10 to 100 | – | CNc1ncc(-c2cnn(C)c2)cc1NC(=O)c1cc(F)cc(C(F)(F)F)c1 [I-71]
25 | 1 to 10 | – | Cc1ccccc1Nc1ncc(N2CC(N)C2)cc1NC(=O)c1cc(F)cc(C(F)(F)F)c1 [I-73]
26 | 1 to 10 | – | Cc1ccccc1Nc1ncc(-c2ccn[nH]2)cc1NC(=O)c1cc(F)cc(C(F)(F)F)c1 [I-74]
27 | 1 to 10 | – | Cc1ccccc1Nc1ncc(-c2ccc(CNC(=O)OC(C)(C)C)cc2)cc1NC(=O)c1cc(F)cc(C(F)(F)F)c1 [I-76]
28 | 1 to 10 | – | Cc1ccccc1Nc1ncc(-c2cccnc2)cc1NC(=O)c1cc(F)cc(C(F)(F)F)c1 [I-77]
29 | 1 to 10 | – | Cc1ccccc1Nc1ncc(-c2ccc(NC(=O)OC(C)(C)C)cc2)cc1NC(=O)c1cc(F)cc(C(F)(F)F)c1 [I-80]
30 | 0.5 to 1 | – | Cc1ccccc1Nc1ncc(C(=O)NCCO)cc1NC(=O)c1cc(F)cc(C(F)(F)F)c1 [I-86]
31 | 10 to 100 | – | CNC(=O)c1cnc(Nc2ccccc2C)c(NC(=O)c2c[nH]c3ccccc23)c1 [I-87]
32 | 0.5 to 1 | – | Cc1ccccc1Nc1ncc(-c2cnn(C3CCOCC3)c2)cc1NC(=O)c1cc(F)cc(C(F)(F)F)c1 [I-88]
33 | 10 to 100 | – | Cc1ccccc1Nc1ncc(-c2cnn(C)c2)cc1NC(=O)c1cccn2nccc12 [I-89]
34 | 0.5 to 1 | – | Cc1ccccc1Nc1ncc(-c2cnn(C3CCNCC3)c2)cc1NC(=O)c1cc(F)cc(C(F)(F)F)c1 [I-91]
35 | 10 to 100 | – | Cc1ccccc1Nc1ncc(-c2cnn(C)c2)cc1NC(=O)N1CCOc2ccccc21 [I-92]
36 | 10 to 100 | – | COc1cc(F)cc(C(=O)Nc2cc(-c3cnn(C)c3)cnc2Nc2ccccc2C)c1 [I-94]
37 | 1 to 10 | – | Cc1ccccc1Nc1ncc(-c2cnn(C)c2)cc1NC(=O)c1ccc(F)c(C(F)(F)F)c1 [I-102]
38 | 10 to 100 | – | Cc1ccccc1Nc1ncc(-c2cnn(C)c2)cc1NC(=O)c1ccc2cc[nH]c2c1 [I-103]

Continued, molecule first:

Row | SMILES | IC50 [µM] | IC50 [1] [µM]
39 | Cc1ccccc1Nc1ncc(C(=O)N[C@@H]2CCN(C)C2)cc1NC(=O)c1cc(F)cc(C(F)(F)F)c1 (stereo in doubt) [I-64] | 1 to 10 | –
40 | CNC(=O)c1cnc(Nc2ccccc2C)c(NC(=O)[C@H](N)C2CCCCC2)c1 (stereo in doubt) [I-142] | 10 to 100 | –
41 | COC(=O)c1cnc(Nc2ccccc2C)c(NC(=O)c2cc(F)cc(C(F)(F)F)c2)c1 [I-3] | 1 to 10 | –
42 | CNC(=O)c1cnc(Nc2ccccc2C)c(NC(=O)c2cc3c(F)cc(F)cc3[nH]2)c1 [I-5] | 10 to 100 | –
43 | Cc1ccccc1Nc1ncc(-c2cnn(C)c2)cc1NC(=O)c1cc(F)cc(C(F)(F)F)c1 [I-9] | 10 to 100 | –
44 | CNC(=O)c1cnc(Nc2ccccc2C)c(N(S(=O)(=O)c2ccc(F)cc2C)S(=O)(=O)c2ccc(F)cc2C)c1 [I-10] | 10 to 100 | –
45 | CNC(=O)c1cnc(Nc2ccccc2C)c(NC(=O)c2cc(Cl)ccc2OC)c1 [I-12] | 10 to 100 | –
46 | CNC(=O)c1cnc(Nc2ccccc2C)c(N(S(=O)(=O)c2ccccc2)S(=O)(=O)c2ccccc2)c1 [I-13] | 10 to 100 | –
47 | Cc1ccccc1Nc1ncc(C2=CCNCC2)cc1NC(=O)c1cc(F)cc(C(F)(F)F)c1 [I-16] | 10 to 100 | –
48 | Cc1ccccc1Nc1ncc(C(=O)O)cc1NC(=O)c1cc(F)cc(C(F)(F)F)c1 [I-17] | 1 to 10 | –
49 | Cc1cnc(Nc2ccccc2C)c(NC(=O)c2cc(F)cc(C(F)(F)F)c2)c1 [I-19] | 10 to 100 | –
50 | Cc1ccccc1Nc1ncc(C(=O)N2CCOCC2)cc1NC(=O)c1cc(F)cc(C(F)(F)F)c1 [I-22] | 10 to 100 | –
51 | CNC(=O)c1cnc(Nc2ccccc2C)c(NCc2ccccc2)c1 [I-23] | 10 to 100 | –
52 | CNC(=O)c1cnc(Nc2ccccc2)c([N+](=O)[O-])c1 [I-24] | 10 to 100 | –
53 | CNC(=O)c1cnc(Nc2cccc(F)c2)c([N+](=O)[O-])c1 [I-25] | 10 to 100 | –
54 | CNC(=O)c1cnc(Nc2ccccc2C)c(NC(=O)Cc2c(C)nc(N)[nH]c2=O)c1 [I-26] | 10 to 100 | –
55 | CNC(=O)c1cnc(Nc2cccc(F)c2)c(NC(=O)c2cc(F)cc(C(F)(F)F)c2)c1 [I-29] | 10 to 100 | –
56 | CNC(=O)c1cnc(Nc2ccccc2)c(N)c1 [I-31] | 10 to 100 | –
57 | CNC(=O)c1cnc(Nc2ccccc2)c(NC(=O)c2cc(F)cc(C(F)(F)F)c2)c1 [I-33] | 10 to 100 | –
58 | CNC(=O)c1cnc(Nc2ccccc2C)c(NC(=O)Cc2cccc(Cl)c2)c1 [I-35] | 10 to 100 | –

Row | SMILES | IC50 [µM] | IC50 [1] [µM]
59 | CNC(=O)c1cnc(N2CCc3ccccc32)c(NC(=O)c2cc(F)cc(C(F)(F)F)c2)c1 [I-37] | 10 to 100 | –
60 | CNC(=O)c1cnc(Nc2ccccc2S(C)(=O)=O)c(NC(=O)c2cc(F)cc(C(F)(F)F)c2)c1 [I-47] | 10 to 100 | –
61 | Cc1ccccc1Nc1ncc(C#N)cc1NC(=O)c1cc(F)cc(C(F)(F)F)c1 [I-49] | 1 to 10 | –
62 | Cc1ccc(NC(=O)c2cc(F)cc(C(F)(F)F)c2)c(Nc2ccccc2C)n1 [I-59] | 1 to 10 | –
63 | Cc1ccccc1Nc1ncc(NS(C)(=O)=O)cc1NC(=O)c1cc(F)cc(C(F)(F)F)c1 [I-62] | 1 to 10 | –
64 | Cc1ccccc1Nc1ncc(CO)cc1NC(=O)c1cc(F)cc(C(F)(F)F)c1 [I-63] | 1 to 10 | –
65 | Cc1ccccc1Nc1ncc(-c2c(C)noc2C)cc1NC(=O)c1cc(F)cc(C(F)(F)F)c1 [I-78] | 0.5 to 1 | –
66 | Cc1ccccc1Nc1ncc(-c2cn[nH]c2)cc1NC(=O)c1cc(F)cc(C(F)(F)F)c1 [I-81] | 1 to 10 | –
67 | Cc1ccccc1Nc1ncc(-c2ccccc2C#N)cc1NC(=O)c1cc(F)cc(C(F)(F)F)c1 [I-83] | 0.5 to 1 | –
68 | CNC(=O)c1cnc(Nc2ccccc2C)c(NCc2cc(F)cc(C(F)(F)F)c2)c1 [I-85] | 10 to 100 | –
69 | Cc1ccccc1Nc1ncc(-c2cnn(C3CCN(C(=O)OC(C)(C)C)CC3)c2)cc1NC(=O)c1cc(F)cc(C(F)(F)F)c1 [I-90] | 1 to 10 | –
70 | Cc1cc(F)cc(C(=O)Nc2cc(-c3cnn(C)c3)cnc2Nc2ccccc2C)c1 [I-95] | 1 to 10 | –
71 | Cc1ccccc1Nc1ncc(-c2cnn(C)c2)cc1NC(=O)c1cc(F)cc(Br)c1 [I-96] | 0.5 to 1 | –
72 | Cc1ccccc1Nc1ncc(-c2cnn(C)c2)cc1NC(=O)c1cc(F)cc(Cl)c1 [I-97] | 0.5 to 1 | –
73 | Cc1ccccc1Nc1ncc(-c2cnn(C)c2)cc1NC(=O)c1ccnc2c1ccn2C [I-98] | 10 to 100 | –
74 | Cc1ccccc1Nc1ncc(-c2cnn(C)c2)cc1NC(=O)c1cccc(Br)c1 [I-99] | 1 to 10 | –
75 | Cc1ccccc1Nc1ncc(-c2cnn(C)c2)cc1NC(=O)c1cccc2c1cnn2C [I-100] | 10 to 100 | –
76 | Cc1ccccc1Nc1ncc(-c2cnn(C)c2)cc1NC(=O)c1cc(F)cc(F)c1 [I-101] | 1 to 10 | –
77 | Cc1ccccc1Nc1ncc(-c2cnn(C)c2)cc1NC(=O)c1ccc(Cl)c(Cl)c1 [I-104] | 1 to 10 | –
